Non-standard residues stand in square brackets, D forms with d. No end group written: not given here. Bip = N[C@@H](Cc1ccc(-c2ccccc2)cc1)C(=O)O
Tests used:
MRSA biofilms = assay: In vivo antibiofilm efficacy test, MRSA biofilm wounds (B6.BKS(D)-Leprdb/J mice); set-up: species or system type II diabetic mice; details: 24 hours and 48 hours inoculation followed by 24 hour treatment of 2% mupirocin ointment
Experimental: A biofilm-containing chronic wound model was established. Briefly, MRSA was grown in TSB overnight. Subsequently, 100 μL of bacterial strain was pipetted into 4 mL of fresh TSB medium and cultivated for 3 hours followed by PBS washing for three times. Then, the bacterial concentration was adjusted to 1×10^8 CFU/mL and stored in the ice box before use. Nine […] 000697-B6.BKS(D)-Leprdb/J diabetic defective mice (male, 10-11 weeks, 50-55 g, GLU>200 mg/dL) fed with standard pellet diet and water were used.
The biofilm was established in 000697-B6.BKS(D)-Leprdb/J mice excisional wounds. […]
After the biofilm formation was performed, F127/17BIPHE2-PCL-S core-shell nanofiber membranes or Janus-type dressings were put on the wound, different dressing changes strategies were applied to treat the biofilm formed wound. […] All the dishes were inoculated in a 37° C. microbial incubator for 18 hours, and the CFU numbers were counted.
To further evaluate the anti-biofilm efficacy, MRSA biofilms were established in type II diabetic mice wounds (FIG. 21). […] The CFU of MRSA biofilms (10^10-10^12 CFU/g) formed after 24 hours and 48 hours of bacteria inoculation and removal of planktonic bacteria was quantified (FIG. 21B). […]

MRSA = assay: Antibiotic agar inhibition (MRSA inhibition zone) test; format: cell-based, Staphylococcus aureus; details: FIG. 6E
MRSA USA300 biofilm = format: in vivo, type II diabetic mice; details: 24 hours MRSA inoculation and subsequent 24 hour mupirocin 2% treatment
Experimental: Briefly, MRSA was grown in TSB overnight. Subsequently, 100 μL bacterial strain was pipetted into 4 mL fresh TSB medium for 3 hours followed by PBS washing for three times. Then, the bacterial concentration was adjusted to 1×10^8 CFU/mL and stored in the ice box before use. One hundred female 005314-TALLYHO/JngJ diabetic defective mice (10-11 weeks, 30-35 g, GLU>200 mg/dL) fed with standard pellet diet and water were used.
The biofilm was established in 005314-TALLYHO/JngJ mice excisional wounds. Two 6 mm-diameter full thickness wounds were created on the back of a mouse using a disposable biopsy punch (Integra Miltex®, Kai Medical, USA) and fixed with a wound splint (Grace Bio-labs, Inc, Bend, Oreg.). The wounds were all inoculated with 10 μL of 1×10^8 CFU/mL MRSA instantly after surgery, and mupirocin 2% was applied to treat the wounds at day 2 (24 hours after surgery). Then, the surrounding and wound tissue was collected using an 8 mm-diameter punch and the biofilm was confirmed by CFU count, LIVE/DEAD® staining and SEM observation.
The biofilm formation was performed as above-mentioned. The mice were then divided into control groups and peptide groups. Control groups' wounds were treated with 6-mm diameter F127-PCL core-shell nanofiber discs alone. […] All the dishes were inoculated in a 37° C. microbial incubator for 18 hours and the CFU numbers were counted. […]

S. aureus USA300 = details: compared to either LL-37 or GF-17; cited from earlier work
[1] = tested on: Staphylococcus aureus USA300; details: cited from earlier work
[2] = tested on: resistant ESKAPE pathogens, including persisters and biofilms; details: cited from earlier work
[3] = in biofilm; Lawrence, et al. (1994); cited from earlier work

Question: With `C/C(=C\C(=O)OCCCCCCCCC(=O)O)C[C@@H]1OC[C@H](C[C@@H]2O[C@H]2[C@@H](C)[C@H](C)O)[C@@H](O)[C@H]1O` [mupirocin 2%, mupirocin] as the compound, how does the “CFU of MRSA biofilms” value (MRSA biofilms) read?
Answer: The value was 10^10-10^12 CFU/g.

Question: What about the “killing of planktonic bacteria in antibiotic agar inhibition test” value (MRSA) of the same compound?
Answer: The value was “kill the planktonic bacteria very effectively”.

Question: And the “bacteria resided on surgical site and surrounding tissues” value (MRSA USA300 biofilm)?
Answer: Its value is 10^10 CFU/g.

Question: Which “protection of wax moths from S. aureus USA300 infection” value (S. aureus USA300) does the source give for “GX1KRLVQRLKDX2LRNLV, wherein X1 and X2 are biphenylalanines (SEQ ID NO: 2) (G[Bip]KRLVQRLKD[Bip]LRNLV) [17BIPHE2, molecularly engineered human cathelicidin LL-37 peptide]” here?
Answer: The value was “optimized protection”.

Question: What does the source list for LL-37?
Answer: inhibition of bacterial attachment / disruption of preformed biofilms ([1]; Mishra, et al. (2016)): unable to inhibit bacterial attachment or disrupt preformed biofilms; inhibition of biofilm growth of Staphylococcus aureus USA300 ([1]; in vitro, Haisma, et al. (2014)): only at a low concentration

Question: Which “antimicrobial activity against resistant ESKAPE pathogens” value [2] does the source give for “RRRWWWWV; SEQ ID NO: 7 (Antimicrobial peptide) [W379, peptide with merely eight amino acids]” here?
Answer: Its value is “antimicrobial activity”.

Question: What about the “diffusion coefficient of peptides (D)” value [3] of the same compound?
Answer: Its value is 3.1×10^−12 m^2/s.
